Test results: US20220183952A1, “FORMULATION FOR THE TOPICAL TREATMENT OF THE SKIN AND RELATED USE” (SVAS BIOSANA SPA, priority 2018, published 2022)

Assays:
[1] = Superoxide radical scavenging activity
[2] = TEAC (Trolox equivalent antioxidant capacity) assay
[3] = FRAP (Ferric reducing antioxidant power) assay

Superoxide radical scavenging activity, EC50 [1] [µg/mL]	Compound	TEAC [2] [mmol TE/g]	FRAP [3] [Mmol Fe2+/g]
60 ± 0	O=C1O[C@H]([C@@H](O)CO)C(O)=C1O [Vitamin C, vitamin C]	7.23 ± 0.28	6.57 ± 1.00
	Cc1cc(C(C)(C)C)c(O)c(C(C)(C)C)c1 [BHT, hydroxytoluene butylate]	0.467 ± 0.005	0.416 ± 0.020
